Literature values, collected in patent US7291352B2 (HerbalScience LLC, priority 2001, dated 2007).

Tested on: gamma-aminobutyric acid (GABA) receptor uptake
Settings: in micromolar concentrations

Row | Structure (SMILES) | inhibition of GABA receptor uptake
1 | CN1CCC=C(C(=O)O)C1 [arecaidine] | inhibit
2 | O=C(O)C1=CCCNC1 [guvacine] | inhibit
